We go through twelve compounds from patent publication US5358945A, “Pyrimidine compound and pharmaceutically acceptable salts thereof” (Mitsui Petrochemical Industries, Ltd., priority 1990, dated 1994).

Structures are written as SMILES. Some results are limits rather than exact numbers.

One data set has as its system Mouse neuro 2a cells. The data set can be described thus: Neurite outgrowth of mouse neuroblastoma neuro 2a cells (Table 7). It counts as cell-based. To be noted: mean ± S.D. How it is done: The biological activities in vitro of the compounds of formula (I) on cells of the nervous system were tested. The cells tested were mouse neuroblastoma cell line neuro-2a (Dainippon Pharmaceutical Co., Ltd.) which have been established as the cells of the nervous system. The above nerve cells were grown in an incubator at 37° C. in the presence of 5% carbon dioxide gas exponentially, and the cultured for a certain period of time together with the compounds of formula (I).
The effects of the compounds of this invention on neuroblastoma cells were examined by the following method.
Mouse neuro 2a cells in the logarithmic growth period in the Dulbecco's modified Eagle's medium [DMEM, containing 100 units/ml of penicillin G sodium and 100 micrograms/ml of streptomycin sulfate] containing 10% of FCS were seeded in a 48-well plate so that the number of cells was 1,000 cells/well, and cultured for one day in 0.25 ml of the culture fluid in each well in an incubator containing 5% of carbon dioxide gas in air at 37° C. The medium was replaced by a medium containing each antibiotics and FCS and the cells were further cultured for 24 hours. Then, a 4% aqueous glutaraldehyde solution in the same amount as a medium (0.25 ml) was added, and the culture was left to stand at room temperature for 2 hours to fix the cells. After washing with water, a 0.05% aqueous solution of methylene blue was added to stain the cells. Under a microscope, the number of cells containing outgrown neurites (cells having at least one neurite with a length of at least two times as large as the long diameter of the cell) was counted visually, and the proportion of these cells in the entire cells was calculated. The well was observed over 5 or more visual fields (at least 2% of the entire surface area of the well) continuous to the left and right from a mark put at the center of the well, and more than 200 cells was counted. One drug compound was used in 6 different concentrations at most, and three runs were conducted for each concentration.

Data set [1] concerns Mouse neuroblastoma cells NS-20Y. The data set can be described thus: Neurite appearance in mouse neuroblastoma NS-20Y cells (Table 8).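 Also: cells grown in polyornithine-coated dishes, with timing counted from the start of culture.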 It counts as cell-based.
For a further data set, the system named is mouse. Kind of data set: Acute toxicity in mouse (Table 10). Type of data set: in vivo. As for the experimental part: The acute toxicity of the compounds of the invention was examined by the following method.
Male ddy-strain 5-week old mice, 4-6 per group, were used as experimental animals. Each of the compounds was dissolved or suspended in saline and administered perorally (p.o.) or intraperitoneally (i.p.), and the toxicity of the compound was assessed 24 hours after the administration.

Where [2] appears, read: i.p., 24 hours after administration.

Consider `O=C1CCCN1c1ccnc(N2CCN(c3ccccc3)CC2)n1` [Compound 416], for which the figures for the “Ratio of the number of cells having neurites with a length of at least two times as large as the diameter of cells to the total number of cells” value (“Ratio” below) in the data set on Mouse neuro 2a cells (0.01 mM), with Mouse neuro 2a cells (0.1 mM) and with Mouse neuro 2a cells (0.3 mM) were 5.0 ± 1.9%, 4.4 ± 0.4% and 5.1 ± 1.2%, respectively. Besides, the “The number of cells in which neurites appeared/Total number of cells” value was 6/50 in data set [1] (24 hour, 0.2 mM); 9/50 in data set [1] (24 hour, 0.5 mM); 7/50 in data set [1] (48 hour, 0.2 mM); 9/50 in data set [1] (48 hour, 0.5 mM). For the same compound, in the data set on mouse (setting [2]), the “Estimated LD50” value is on record as > 500 mg/kg.
As to `CN(C(=O)c1ccc2c(c1)C(=O)OC2=O)c1ccnc(N2CCC(c3ccccc3)CC2)n1` [Compound 168], the “Ratio” value with Mouse neuro 2a cells (0.3 mM) is reported as 8.7 ± 2.0%; in the data set with Mouse neuro 2a cells (1 mM), 14.6 ± 3.7%. The “The number of cells in which neurites appeared/Total number of cells” value is reported as 3/50 in data set [1] (24 hour, 0.2 mM) and 3/50 in data set [1] (48 hour, 0.5 mM). Moreover, in the data set with mouse (in vivo, ip), the “Estimated LD50” value is reported as > 1000 mg/kg.
With `O=C1CCCN1c1ccnc(N2CCc3ccccc3C2)n1` [Compound 352], the “Ratio” value with Mouse neuro 2a cells (0.01 mM) stood at 3.4 ± 0.1%; in the data set with Mouse neuro 2a cells (0.3 mM), 4.2 ± 0.6%. In addition, the “The number of cells in which neurites appeared/Total number of cells” value is 5/50 in data set [1] (24 hour, 0.2 mM) and 3/50 in data set [1] (48 hour, 0.2 mM). Further, the “Estimated LD50” value in the data set on mouse (setting [2]) is > 500 mg/kg.
On to `O=C1CCCN1c1ccnc(N2CCCC2)n1` [Compound 320], for which the “Ratio” value is given as 4.2 ± 1.9% in the data set with Mouse neuro 2a cells (0.01 mM), 4.2 ± 0.3% with Mouse neuro 2a cells (0.1 mM), 11.0 ± 0.8% in the data set on Mouse neuro 2a cells (0.3 mM) and 10.7 ± 4.7% in the data set on Mouse neuro 2a cells (1 mM). Further, the “The number of cells in which neurites appeared/Total number of cells” value in data set [1] (24 hour, 0.1 mM) was 5/50; in data set [1] (24 hour, 0.5 mM) it was 6/50; in data set [1] (48 hour, 0.5 mM) it was 3/50. For the same compound, the “Estimated LD50” value in the data set on mouse (setting [2]) is on record as > 500 mg/kg.
For `O=C1CCCN1c1ccnc(N2CCCCC2)n1` [Compound 273], the “Ratio” value in the data set with Mouse neuro 2a cells (0.01 mM) was 5.3 ± 0.8%; in the data set on Mouse neuro 2a cells (0.1 mM) it was 7.7 ± 2.0%; with Mouse neuro 2a cells (0.3 mM) it was 24.0 ± 3.2%; in the data set on Mouse neuro 2a cells (1 mM), 10.3 ± 4.0%. For the same compound, the “The number of cells in which neurites appeared/Total number of cells” value in data set [1] (24 hour, 0.1 mM) is on record as 10/50; in data set [1] (24 hour, 0.2 mM) it was 15/50; in data set [1] (24 hour, 0.5 mM) it was 18/50; in data set [1] (48 hour, 0.1 mM), 8/50; in data set [1] (48 hour, 0.2 mM), 16/50; in data set [1] (48 hour, 0.5 mM) it was 22/50. Moreover, the “Estimated LD50” value in the data set with mouse (setting [2]) was > 500 mg/kg.
In the case of `CC1CC(C)CN(c2nccc(N3CCCC3=O)n2)C1` (centres unmarked) [Compound 344], the “Ratio” value in the data set with Mouse neuro 2a cells (0.01 mM) was determined as 5.6 ± 1.6%; in the data set with Mouse neuro 2a cells (0.1 mM) it was 7.5 ± 3.3%; in the data set with Mouse neuro 2a cells (0.3 mM) it was 10.4 ± 3.4%; in the data set on Mouse neuro 2a cells (1 mM), 12.5 ± 1.3%. Further, the “The number of cells in which neurites appeared/Total number of cells” value is on record as 3/50 in data set [1] (24 hour, 0.1 mM) and 3/50 in data set [1] (48 hour, 0.1 mM). The “Estimated LD50” value with mouse (in vivo, ip) was 250 to 500 mg/kg.
For the compound `CC(=O)N(C)c1ccnc(N2CCSCC2)n1` [Compound 216], the entries for the “Ratio” value with Mouse neuro 2a cells (0.3 mM) and in the data set on Mouse neuro 2a cells (1 mM) were 4.4 ± 1.3% and 15.8 ± 3.2%, respectively. In addition, the “The number of cells in which neurites appeared/Total number of cells” value is given as 3/50 in data set [1] (24 hour, 0.2 mM); 3/50 in data set [1] (24 hour, 0.5 mM); 4/50 in data set [1] (48 hour, 0.5 mM). In addition, in the data set on mouse (in vivo, ip), the “Estimated LD50” value is 500 to 1000 mg/kg.
In the case of `CC1CCCCN1c1nccc(N2CCCC2=O)n1` (centres unmarked) [Compound 328], the “Ratio” value in the data set with Mouse neuro 2a cells (0.01 mM) was 3.9 ± 0.9%; in the data set with Mouse neuro 2a cells (0.3 mM), 5.6 ± 1.7%. For the same compound, the “The number of cells in which neurites appeared/Total number of cells” value is listed as 3/50 in data set [1] (24 hour, 0.1 mM) and 3/50 in data set [1] (48 hour, 0.1 mM). Besides, in the data set on mouse (in vivo, ip), the “Estimated LD50” value is 250 to 500 mg/kg.
Turning to `CC1CCN(c2nccc(N3CCCC3=O)n2)CC1` [Compound 304], the “Ratio” value with Mouse neuro 2a cells (0.03 mM) turned out to be 3.7 ± 1.2%; in the data set on Mouse neuro 2a cells (0.1 mM) it was 6.8 ± 1.0%; with Mouse neuro 2a cells (0.3 mM) it was 17.7 ± 2.9%; with Mouse neuro 2a cells (1 mM) it was 16.3 ± 4.5%. Besides, the “The number of cells in which neurites appeared/Total number of cells” value in data set [1] (24 hour, 0.1 mM) is reported as 8/50; in data set [1] (24 hour, 0.2 mM), 12/50; in data set [1] (24 hour, 0.5 mM), 16/50; in data set [1] (48 hour, 0.1 mM), 7/50; in data set [1] (48 hour, 0.2 mM), 14/50; in data set [1] (48 hour, 0.5 mM), 17/50. The “Estimated LD50” value in the data set on mouse (in vivo, ip) was 250 to 500 mg/kg.
In the case of `CN(C(=O)c1ccc(C(F)(F)F)cc1)c1ccnc(N2CCC(c3ccccc3)CC2)n1.Cc1ccc(S(=O)(=O)O)cc1` [Compound 112, 4-(N-methyl-4-trifluoromethylbenzoylamino)-2-(4-phenylpiperidino) pyrimidine p-toluenesulfonate], the “Ratio” value in the data set on Mouse neuro 2a cells (0.03 mM) was 5.9 ± 0.9%; in the data set with Mouse neuro 2a cells (0.1 mM), 43.3 ± 1.8%; in the data set with Mouse neuro 2a cells (0.3 mM) it was 21.6 ± 3.3%; in the data set on Mouse neuro 2a cells (1 mM), 10.0 ± 3.8%. Also, the “The number of cells in which neurites appeared/Total number of cells” value in data set [1] (24 hour, 0.1 mM) was 3/50; in data set [1] (48 hour, 0.1 mM) it was 2/50. Besides, the “Estimated LD50” value with mouse (setting [2]) is given as > 1000 mg/kg.
Regarding `O=C1CCCN1c1ccnc(N2CCSCC2)n1` [Compound 400], the “Ratio” value in the data set on Mouse neuro 2a cells (0.03 mM) stood at 5.0 ± 0.1%; with Mouse neuro 2a cells (0.1 mM), 6.3 ± 0.7%; in the data set with Mouse neuro 2a cells (0.3 mM) it was 11.2 ± 1.5%; in the data set with Mouse neuro 2a cells (1 mM), 12.1 ± 1.4%. In addition, the “The number of cells in which neurites appeared/Total number of cells” value in data set [1] (24 hour, 0.2 mM) is 8/50; in data set [1] (24 hour, 0.5 mM), 9/50; in data set [1] (48 hour, 0.2 mM), 11/50; in data set [1] (48 hour, 0.5 mM), 13/50. The “Estimated LD50” value with mouse (setting [2]) is given as > 500 mg/kg.
On to `CN(C(=O)c1ccccc1)c1ccnc(N2CCc3ccccc32)n1` [Compound 104], for which the figures for the “Ratio” value in the data set with Mouse neuro 2a cells (0.03 mM) and in the data set on Mouse neuro 2a cells (0.1 mM) were 3.4 ± 1.0% and 5.2 ± 2.9%, respectively. In addition, the “The number of cells in which neurites appeared/Total number of cells” value in data set [1] (24 hour, 0.2 mM) is recorded as 3/50; in data set [1] (24 hour, 0.5 mM) it was 4/50; in data set [1] (48 hour, 0.2 mM), 4/50; in data set [1] (48 hour, 0.5 mM), 3/50. The “Estimated LD50” value in the data set with mouse (setting [2]) was > 1000 mg/kg.
